Where two headings read alike, the source gives them in different places.
Key:
M. marinum luxCDABE = assay type: cell-based, Mycobacterium marinum; details: 10 µM
M. marinum GFP = assay type: cell-based, Mycobacterium marinum; details: for M. marinum GFP normalised growth, control=1.00, mean: 10 µM, antibiotic assay
[1] = test system: M. marinum in A. castellanii; assay type: cell-based, Mycobacterium marinum; details: 10 µM
[2] = test system: M. marinum in BV2 microglial cells; assay type: cell-based, Mycobacterium marinum; details: for BV2 / M. marinum normalised growth, control=1.00, mean / anti-infective properties in microglial cell (BV2) infection assay / hit in BV2/M. marinum assay True/False: 10 µM
D. discoideum GFP-ABD = details: 10 µM
Mtb H37Rv in THP-1 = test system: Mtb H37Rv in THP-1; design: method as in Sorrentino et al, 2015; details: ref Sorrentino et al, 2015, cited from earlier work; for Extracellular MIC90/ Inracellular MIC90: ratio
Mtb H37Rv = test system: Mtb H37Rv; design: method as in Sorrentino et al, 2015; details: ref Sorrentino et al, 2015; cited from earlier work
[3] = THP1 / Mtb H37Rv infection assay

Row | Structure (SMILES) | M. marinum luxCDABE normalised growth, control=1.00, mean (M. marinum luxCDABE) | M. marinum GFP normalised growth, control=1.00, mean (M. marinum GFP) | A. castellanii / M. marinum normalised growth, control=1.00, mean [1] | IC50 [2] [µM] | BV2 / M. marinum normalised growth, control=1.00, mean [2] | D. discoideum GFP-ABD normalised growth, control=1.00, mean (D. discoideum GFP-ABD) | Intracelullar MIC90 in THP-1 (Mtb H37Rv in THP-1; [3]) [µM] | Extracellular MIC90/ Inracellular MIC90 (Mtb H37Rv in THP-1) | Extracellular MIC90 (Mtb H37Rv) [µM] | M. marinum luxCDABE normalised growth, control = 1.00, mean (M. marinum luxCDABE) | Hits A. castellanii/M. marinum assay True/False [1] | anti-infective properties in A. castellanii infection assay [1] | anti-infective properties in microglial cell (BV2) infection assay [2] | hit in BV2/M. marinum assay True/False [2] | Intracelullar MIC90 in THP-1 (Mtb H37Rv in THP-1; Mtb H37Rv-infected THP1 cells) [µM] | D. discoideum GFP-ABD normalised growth, control = 1.00, mean (D. discoideum GFP-ABD) | antibiotic activity in M. marinum growth assay (M. marinum GFP; broth)
1 | O=C(C=Cc1cccs1)N1CCN(Cc2ccc(Br)s2)CC1 [GSK1744926A] | 0.00 | 0.13 | 0.74 | 4.18 | 0.70 | 0.50 | 1.85 | 1.03 | 1.9 | – | – | – | – | – | – | – | –
2 | CNc1nc(SC)nc2ccccc12 [GSK353069A] | 0.00 | 0.0149 | 0.47 | 1.31 | 0.42 | 0.99 | 0.07 | 2.86 | 0.2 | 0,00 | TRUE | strong anti-infective properties | strong anti-infective properties | TRUE | 0.07 | – | –
3 | CCCCS(=O)(=O)Nc1ccc2cnn(C)c2c1 [GSK3011724A] | 0.14 | 0.08 | -0.32 | 4.44 | 0.40 | 0.99 | 0.21 | 6.19 | 1.3 | – | TRUE | strong anti-infective properties | strong anti-infective properties | TRUE | 0.21 | – | –
4 | O=C(C=Cc1cccs1)N1CCN(Cc2ccc3c(c2)OCO3)CC1 [GW861072X] | 0.00 | 0.05 | 0.54 | 7.99 | 0.48 | 0.68 | 0.61 | 0.49 | 0.3 | 0,00 | FALSE | – | – | TRUE | 0.61 | – | –
5 | COc1cc(C(F)(F)F)nc2ccc(C)c(N)c12 [GSK345724A] | 0.31 | 0.29 | 1.16 | 8.6 | 0.87 | 0.95 | 1.85 | 2.86 | 5.3 | – | – | – | – | – | – | – | –
6 | Cc1nc2ccccn2c1C(=O)NCc1cccs1 [GSK892651A] | 0.00 | 0.12 | 0.65 | 4.41 | 0.60 | 0.83 | 5.55 | 1.62 | 9 | – | – | – | – | – | – | – | –
7 | COc1ccc(Nc2ccccc2NC(=O)c2ccc(O)nc2)cc1 [GSK1051703A] | 1.00 | 0.84 | 1.00 | 6.47 | 0.65 | 1.00 | 5.55 | 1.28 | 7.1 | – | – | – | – | – | – | – | –
8 | Br.CCc1ccccc1OCCCON1C(=N)N=C(N)NC1(C)C [BRL-10143SA] | 0.00 | 0.04 | 2.62 | 4.19 | 0.55 | 0.53 | 1.85 | 1.73 | 3.2 | – | – | – | – | – | – | – | –
9 | O=C(NCc1ccc2c(c1)OCO2)c1c(C(F)(F)F)nc2ccccn12 [GSK1829671A] | 0.00 | 0.06 | 0.66 | 7.47 | 0.49 | 1.21 | 16.65 | 0.2 | 3.3 | 0,00 | FALSE | – | – | TRUE | 16.65 | 1,21 | –
10 | Cn1ccnc1CNCCS(=O)(=O)c1cccc(Nc2ccc(-c3cccc(F)c3)cn2)c1 [GSK1826247A] | 0.00 | 0.98 | 1.14 | 7.73 | 0.98 | 0.90 | 0.61 | 7.7 | 4.7 | – | – | – | – | – | – | – | –
11 | Nc1cccnc1Nc1ccc(Cl)cc1 [GR135486X] | 1.00 | 0.83 | 0.97 | 10.8 | 0.75 | 0.35 | 5.55 | 0.04 | 0.2 | – | – | – | – | – | – | – | –
12 | COc1ccc(-c2nc(-c3cccc(NC(=O)Cc4ccc(F)cc4)c3)no2)cc1OC [GSK2043267A] | 0.00 | 0.97 | 0.86 | 6.69 | 0.77 | 1.18 | 0.21 | 17.62 | 3.7 | – | – | – | – | – | – | – | strong antibiotic activity
13 | Nc1cc(OCc2ccccc2)ccc1Nc1ccccc1 [GV187303X] | 0.90 | 0.71 | 1.05 | 5.44 | 0.55 | 0.89 | 50 | 0.19 | 9.4 | – | – | – | – | – | – | – | –
14 | CN1CCN(c2ccc(C(F)(F)F)cc2NC(=O)c2ccccn2)CC1 [GSK1750922A] | 1.00 | 0.91 | 0.93 | 5.07 | 0.94 | 0.29 | 50 | 0.04 | 1.9 | – | – | – | – | – | – | – | –
15 | CSc1ccccc1C(=O)Nc1nc(-c2ccccn2)cs1 [GSK921190A] | 0.10 | 0.45 | 1.20 | 4.08 | 0.94 | 0.94 | 16.65 | 0.1 | 1.7 | – | – | – | – | – | – | – | –
16 | O=C(c1cc2ccccc2o1)N1CCN(Cc2ccc3c(c2)OCO3)CC1 [GSK861337A] | 0.00 | 0.10 | 0.70 | 9.31 | 0.77 | 0.31 | 5.55 | 0.49 | 2.7 | – | – | – | – | – | – | – | –
17 | COc1cc2ccccc2cc1C(=O)NCc1cccc(-c2ccccc2OC)c1 [GSK695914A] | 0.00 | 0.0549 | 0.63 | 7.82 | 0.48 | 0.98 | 5.55 | 0.4 | 2.2 | 0,00 | FALSE | – | – | TRUE | 5.55 | – | –

Reference: publication PMC5834492, “Antimycobacterial drug discovery using Mycobacteria-infected amoebae identifies anti-infectives and new molecular targets” (Scientific Reports, 2018)
